What all share (type): biochemical
The target in one experiment is CDC7/DBF4 (Homo sapiens, UniProt O00311). The experiment can be described thus: Inhibition assay of Cdc7 activity (Dowex resin capture, 33P-ATP, MCM2 substrate). Particulars: Enzyme CDC7/DBF4. Here is the method:
(§1) The inhibitory activity of putative kinase inhibitors and the potency of selected compounds were also determined using a trans-phosphorylation assay.
(§2) Specific peptide or protein substrates are trans-phosphorylated by their specific ser-thr or tyr kinase in the presence of ATP traced with ^33P-γ-ATP, and in the presence of their own optimal buffer and cofactors. At the end of the phosphorylation reaction, more than 98% unlabeled ATP and radioactive ATP is captured by an excess of the ion exchange dowex resin; the resin then settles down to the bottom of the reaction plate by gravity. Supernatant is subsequently withdrawn and transferred into a counting plate, then evaluated by β-counting.
(§3) As example herein are reported the assay conditions used for testing the compounds of formula (I) against cdc7 and cdk2 kinase.
Inhibition Assay of Cdc7 Activity
The inhibiting activity of putative Cdc7 inhibitors and the potency of selected compounds is determined through a method of assay based on the use of Dowex resin capture technology.
The assay consists of the transfer of radioactivity labeled phosphate moiety by the kinase to an acceptor substrate.
The resulting ^33P-labeled product is separated from unreacted tracer, transferred into a scintillation cocktail and light emitted is measured in a scintillation counter. […]

The next experiment has as its target T1, CDK2/CYCA (Homo sapiens, UniProt P24941).
T1 construct: host or cells: baculovirus expression system (co-expression)
The experiment can be described thus: Inhibition assay of Cdk2/Cyclin A activity (33P-ATP, histone H1 substrate). Particulars: Enzyme CDK2/CYCA. Here is the method: as §1, §2, §3
To each well of the plate were added: • 10 μl test compound (10 increasing concentrations in the nM to uM range to generate a dose-response curve). The solvent for test compounds contained 3% DMSO. (final concentration 1%) • 10 μl substrate MCM2 ([…] final concentration), a mixture of cold ATP ([…] final concentration) and radioactive ATP (1/5000 molar ratio with cold ATP). • 10 μl enzyme (Cdc7/Dbf4, 2 nM final concentration) that started the reaction. […]

The next experiment deals with GSK3beta (Homo sapiens, UniProt P49841). The experiment can be described thus: Kinase inhibition assay, IC50 (Table A). Particulars: Enzyme GSK3beta. Here is the method:
(§4) The inhibiting activity of putative kinase inhibitors and the potency of selected compounds is determined through a method of assay based on the use of the Kinase-Glo® Luminescent Kinase Assay (commercially available from Promega corporation and described in Koresawa, M. and Okabe, T. (2004) High-throughput screening with quantitation of ATP consumption: A universal non-radioisotope, homogeneous assay for protein kinase. Assay Drug Dev. Technol. 2, 153-60).
as §1, §2
(§5) Reaction conditions are target (enzyme) dependent and thus undergo individual adaptations. Also the buffer conditions may vary depending on the kinase of interest. The assay can be used with virtually any kinase and substrate combination and is suitable for all type of protein kinases, such as ABL, ACK1, AKT1, ALK, AUR1, AUR2, BRK, BUB1, CDC7/DBF4, CDK21CYCA, CHK1, CK2, EEF2K, EGFR1, EphA2, EphB4, ERK2, FAK, FGFR1, FLT3, GSK3beta, Haspin, IGFR1, IKK2, IR, JAK1, JAK2, JAK3, KIT, LCK, LYN, MAPKAPK2, MELK, MET, MNK2, MPSI, MST4, NEK6, NIM1, P38alpha, PAK-4, PDGFR, PDK1, PERK, PIM1, PIM2, PKAalpha, PKCbeta, PLK1, RET, ROS1, SULU1, Syk, TLK2, TRKA, TYK, VEGFR2, VEGFR3, ZAP70.

The target of the next experiment is KIT (Homo sapiens, UniProt P10721). The experiment can be described thus: Kinase inhibition assay, IC50 (Table A). Particulars: Enzyme KIT. How it is done:
as §4, §1, §2, §5

A further experiment concerns the target MELK (Homo sapiens, UniProt Q14680). Nature of the experiment: Kinase inhibition assay, IC50 (Table A). Particulars: Enzyme MELK. Here is the method:
as §4, §1, §2, §5

Chain of MELK (Q14680 whole entry): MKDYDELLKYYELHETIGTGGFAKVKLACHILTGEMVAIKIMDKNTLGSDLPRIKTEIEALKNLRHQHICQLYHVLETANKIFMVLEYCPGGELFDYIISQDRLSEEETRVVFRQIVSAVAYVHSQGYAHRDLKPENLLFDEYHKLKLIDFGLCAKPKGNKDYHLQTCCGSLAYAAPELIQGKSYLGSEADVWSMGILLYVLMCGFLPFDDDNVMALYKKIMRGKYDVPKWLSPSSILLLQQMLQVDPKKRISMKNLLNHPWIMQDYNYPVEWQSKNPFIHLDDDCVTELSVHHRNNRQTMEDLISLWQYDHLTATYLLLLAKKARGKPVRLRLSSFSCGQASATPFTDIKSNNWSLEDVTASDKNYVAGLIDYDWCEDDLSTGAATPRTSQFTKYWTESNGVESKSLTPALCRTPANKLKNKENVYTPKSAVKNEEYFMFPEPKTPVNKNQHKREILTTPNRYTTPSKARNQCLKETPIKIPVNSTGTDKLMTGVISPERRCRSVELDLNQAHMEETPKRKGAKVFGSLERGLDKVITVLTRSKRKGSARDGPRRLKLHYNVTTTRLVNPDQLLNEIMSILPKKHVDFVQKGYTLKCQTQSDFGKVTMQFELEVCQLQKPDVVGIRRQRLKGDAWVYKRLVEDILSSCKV
Chain of KIT (P10721 26-976): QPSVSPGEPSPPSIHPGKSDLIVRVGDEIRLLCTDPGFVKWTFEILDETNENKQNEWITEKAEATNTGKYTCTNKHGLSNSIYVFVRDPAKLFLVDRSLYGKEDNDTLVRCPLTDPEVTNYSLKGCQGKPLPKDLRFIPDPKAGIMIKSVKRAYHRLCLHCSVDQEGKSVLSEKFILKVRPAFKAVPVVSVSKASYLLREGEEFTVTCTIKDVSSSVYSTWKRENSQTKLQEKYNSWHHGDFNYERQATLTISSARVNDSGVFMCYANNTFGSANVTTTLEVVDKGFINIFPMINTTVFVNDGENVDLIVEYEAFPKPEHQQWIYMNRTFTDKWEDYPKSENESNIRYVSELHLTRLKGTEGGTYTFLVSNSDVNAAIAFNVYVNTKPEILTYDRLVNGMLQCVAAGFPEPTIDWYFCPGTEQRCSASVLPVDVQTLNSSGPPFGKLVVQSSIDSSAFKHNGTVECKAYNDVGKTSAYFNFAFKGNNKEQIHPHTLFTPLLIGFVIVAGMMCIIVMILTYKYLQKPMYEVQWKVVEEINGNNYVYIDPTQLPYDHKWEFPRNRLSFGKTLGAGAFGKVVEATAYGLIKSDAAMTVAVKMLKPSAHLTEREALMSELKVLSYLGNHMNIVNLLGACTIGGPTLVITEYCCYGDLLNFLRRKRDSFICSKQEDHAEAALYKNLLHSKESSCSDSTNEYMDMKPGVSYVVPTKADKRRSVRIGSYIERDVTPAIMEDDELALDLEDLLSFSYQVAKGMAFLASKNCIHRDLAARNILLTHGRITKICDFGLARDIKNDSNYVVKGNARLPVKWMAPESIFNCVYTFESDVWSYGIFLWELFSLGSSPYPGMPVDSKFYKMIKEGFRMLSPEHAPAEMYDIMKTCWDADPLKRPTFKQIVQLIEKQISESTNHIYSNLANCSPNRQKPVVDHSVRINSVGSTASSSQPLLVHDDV
Chain of CDC7/DBF4 (O00311 whole entry): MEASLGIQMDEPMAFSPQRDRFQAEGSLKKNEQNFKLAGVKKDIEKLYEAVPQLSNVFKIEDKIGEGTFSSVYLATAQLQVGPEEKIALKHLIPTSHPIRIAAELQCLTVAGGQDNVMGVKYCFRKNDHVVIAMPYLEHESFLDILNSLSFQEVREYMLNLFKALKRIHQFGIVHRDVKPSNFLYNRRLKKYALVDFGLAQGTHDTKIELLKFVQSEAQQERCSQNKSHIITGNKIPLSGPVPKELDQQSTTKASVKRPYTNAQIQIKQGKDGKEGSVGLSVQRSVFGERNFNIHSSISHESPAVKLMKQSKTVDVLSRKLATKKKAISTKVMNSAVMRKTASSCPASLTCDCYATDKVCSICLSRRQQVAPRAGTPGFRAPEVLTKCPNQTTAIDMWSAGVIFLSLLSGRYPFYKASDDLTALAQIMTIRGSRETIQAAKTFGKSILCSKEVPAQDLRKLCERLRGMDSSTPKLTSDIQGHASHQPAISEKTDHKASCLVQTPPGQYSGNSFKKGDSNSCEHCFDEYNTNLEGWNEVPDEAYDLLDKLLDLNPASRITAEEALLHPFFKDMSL
Chain of CDC7/DBF4 (Q9UBU7 whole entry partner): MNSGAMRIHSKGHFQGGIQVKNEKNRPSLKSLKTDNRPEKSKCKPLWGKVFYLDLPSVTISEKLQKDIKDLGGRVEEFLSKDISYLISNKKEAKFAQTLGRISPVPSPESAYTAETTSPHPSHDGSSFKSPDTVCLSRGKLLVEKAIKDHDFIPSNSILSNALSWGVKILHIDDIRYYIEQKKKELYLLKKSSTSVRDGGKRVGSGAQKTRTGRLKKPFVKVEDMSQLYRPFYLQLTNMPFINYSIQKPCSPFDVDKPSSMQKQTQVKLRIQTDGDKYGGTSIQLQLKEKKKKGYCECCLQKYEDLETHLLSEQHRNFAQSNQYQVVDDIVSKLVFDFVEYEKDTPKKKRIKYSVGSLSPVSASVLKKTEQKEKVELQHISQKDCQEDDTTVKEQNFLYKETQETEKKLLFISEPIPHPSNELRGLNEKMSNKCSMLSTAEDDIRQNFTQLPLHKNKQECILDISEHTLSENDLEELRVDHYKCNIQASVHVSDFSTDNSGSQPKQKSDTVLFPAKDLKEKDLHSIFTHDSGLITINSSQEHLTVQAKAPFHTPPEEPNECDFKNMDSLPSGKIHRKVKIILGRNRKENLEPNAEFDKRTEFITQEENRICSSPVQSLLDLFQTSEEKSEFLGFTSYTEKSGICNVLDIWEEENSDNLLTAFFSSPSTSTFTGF
Chain of GSK3beta (P49841 whole entry): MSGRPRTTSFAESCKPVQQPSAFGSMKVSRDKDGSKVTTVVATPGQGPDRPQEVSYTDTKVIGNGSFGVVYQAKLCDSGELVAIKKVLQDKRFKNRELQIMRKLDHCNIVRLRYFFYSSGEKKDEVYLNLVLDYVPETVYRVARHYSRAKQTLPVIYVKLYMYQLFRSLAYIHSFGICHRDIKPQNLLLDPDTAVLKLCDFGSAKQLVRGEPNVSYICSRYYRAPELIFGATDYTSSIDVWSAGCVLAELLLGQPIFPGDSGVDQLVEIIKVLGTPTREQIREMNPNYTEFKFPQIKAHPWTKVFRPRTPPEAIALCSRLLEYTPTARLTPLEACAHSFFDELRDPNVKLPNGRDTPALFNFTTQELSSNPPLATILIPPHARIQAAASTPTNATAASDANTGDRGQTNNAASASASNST

In the case of `CNC(=O)c1cc2n(c1)CCc1c(NC(=O)c3ccc(N4CCN(C)CC4)cc3)n[nH]c1-2` [Example A16-M1-B18], the IC50 (as a rule, the midpoint of a concentration-inhibition curve) on CDC7/DBF4 is 2990 nM; at CDK2/CYCA, 1900 nM; at GSK3beta, 1920 nM; on KIT, 2610 nM; on MELK, 6330 nM.

Values taken from patent US9127015B2, “Tricyclopyrazole derivatives” (NERVIANO MEDICAL SCIENCES S.R.L., priority 2009, dated 2015).
